Our source for the concentration, brain/plasma ratio and metabolic stability values is patent US20120059053A1, “COMPOUNDS OF 2,3-DIHYDRO-BENZOFURAN” (FERRER INTERNATIONAL, S.A., priority 2007, published 2012).

A short description of series [1]: Levels in rat plasma after po administration. It is filed as in vivo. The settings on record: 15 min after po administration of 1 mg/Kg.
A short description of series [2]: Brain/plasma ratio. Conditions: in vivo.
Series [3] can be described thus: Metabolic stability by disappearance of compound on incubation in human microsomes. Conditions: 120 min, 1 μM.

In series [1], `COc1ccc2c(c1)C(CCNC(C)=O)CO2` (stereo not shown) [Example 1, N-[2-(5-methoxy-2,3-dihydro-benzofuran-3-yl)-ethyl]-acetamide] gave a concentration at 15 min of 98 ng/mL.

As to `CCC(=O)NCC[C@@H]1CCc2ccc(OC)cc21` [(1S)-N-[2-(6-methoxy-indan-1-yl)-ethyl]-propionamide], the brain/plasma ratio entry in series [2] is recorded as “zero”. In series [1], the concentration at 15 min amounted to 10.1 ng/mL. For the same molecule, in series [3], the metabolic stability result was “less than 30%”.
